Assays:
Conditions in all cases: Hit No
[1] = molecular target: G/T mismatch-specific thymine DNA glycosylase (Homo sapiens) (UniProt Q13569);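 also: human TDG cleavage of quenched duplex DNA oligonucleotides coupled to APE1, strand release read as fluorescence at 594 nm, inhibition of TDG activity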
Description: Inhibition of TDG by quantifying inhibition of TDG-mediated cleavage and dissociation of quenched duplex DNA oligonucleotides, measured as fluorescence at 594 nm. To generate a functional strand incision and increase turn-over this assay is coupled to APE1.

[2] = molecular target: T1, Adenine DNA glycosylase (Homo sapiens) (UniProt Q9UIF7);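 also: human MUTYH activity read as 594 nm fluorescence from cleavage and release of a quenched DNA duplex, coupled with APE1 for strand incision, lower signal meaning inhibition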
T1 sequence (whole entry): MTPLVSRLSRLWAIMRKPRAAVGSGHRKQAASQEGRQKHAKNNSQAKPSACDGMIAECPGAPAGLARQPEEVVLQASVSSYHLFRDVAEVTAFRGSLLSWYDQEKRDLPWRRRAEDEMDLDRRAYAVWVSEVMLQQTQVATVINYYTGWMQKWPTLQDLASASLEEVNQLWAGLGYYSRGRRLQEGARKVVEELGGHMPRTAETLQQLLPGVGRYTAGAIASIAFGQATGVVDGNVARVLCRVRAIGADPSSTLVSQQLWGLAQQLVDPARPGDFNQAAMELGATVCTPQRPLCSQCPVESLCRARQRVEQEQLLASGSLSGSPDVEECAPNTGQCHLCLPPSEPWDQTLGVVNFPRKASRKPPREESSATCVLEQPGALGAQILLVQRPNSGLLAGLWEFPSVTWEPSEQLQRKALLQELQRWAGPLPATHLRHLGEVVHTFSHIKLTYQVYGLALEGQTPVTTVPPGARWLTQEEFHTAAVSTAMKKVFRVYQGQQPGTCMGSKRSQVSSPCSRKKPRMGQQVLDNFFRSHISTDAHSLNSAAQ
Description: Inhibition of MUTYH by quantifying inhibition of MUTYH-mediated cleavage and dissociation of quenched duplex DNA oligonucleotides, measured as fluorescence at 594 nm. To generate a functional strand incision and increase turn-over this assay is coupled to APE1.

[3] = molecular target: T2, Endonuclease 8-like 2 (Homo sapiens) (UniProt Q969S2);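 also: fluorescence at 594 nm reports NEIL2 cutting and release of a quenched double-stranded DNA oligo substrate, reduced signal read as inhibition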
T2 sequence (whole entry): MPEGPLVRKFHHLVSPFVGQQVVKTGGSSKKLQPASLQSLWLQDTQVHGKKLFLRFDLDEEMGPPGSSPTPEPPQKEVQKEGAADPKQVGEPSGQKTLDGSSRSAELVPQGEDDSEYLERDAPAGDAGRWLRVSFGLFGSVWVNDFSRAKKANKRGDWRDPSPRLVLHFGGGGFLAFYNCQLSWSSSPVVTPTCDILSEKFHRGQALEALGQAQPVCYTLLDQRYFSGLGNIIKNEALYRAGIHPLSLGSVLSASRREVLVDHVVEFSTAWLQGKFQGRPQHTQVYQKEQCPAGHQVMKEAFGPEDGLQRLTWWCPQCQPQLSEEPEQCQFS
Description: Inhibition of NEIL2 by quantifying inhibition of NEIL2-mediated cleavage and dissociation of quenched duplex DNA oligonucleotides, measured as fluorescence at 594 nm.

[4] = molecular target: Methyl-CpG-binding domain protein 4 (Homo sapiens) (UniProt O95243);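 also: MBD4 activity read as fluorescence at 594 nm from cleavage and release of a quenched duplex DNA oligonucleotide, with APE1 coupled to incise the strand and raise turnover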
Sequence of Methyl-CpG-binding domain protein 4 (Homo sapiens) (O95243 whole entry, the tested form may be a part): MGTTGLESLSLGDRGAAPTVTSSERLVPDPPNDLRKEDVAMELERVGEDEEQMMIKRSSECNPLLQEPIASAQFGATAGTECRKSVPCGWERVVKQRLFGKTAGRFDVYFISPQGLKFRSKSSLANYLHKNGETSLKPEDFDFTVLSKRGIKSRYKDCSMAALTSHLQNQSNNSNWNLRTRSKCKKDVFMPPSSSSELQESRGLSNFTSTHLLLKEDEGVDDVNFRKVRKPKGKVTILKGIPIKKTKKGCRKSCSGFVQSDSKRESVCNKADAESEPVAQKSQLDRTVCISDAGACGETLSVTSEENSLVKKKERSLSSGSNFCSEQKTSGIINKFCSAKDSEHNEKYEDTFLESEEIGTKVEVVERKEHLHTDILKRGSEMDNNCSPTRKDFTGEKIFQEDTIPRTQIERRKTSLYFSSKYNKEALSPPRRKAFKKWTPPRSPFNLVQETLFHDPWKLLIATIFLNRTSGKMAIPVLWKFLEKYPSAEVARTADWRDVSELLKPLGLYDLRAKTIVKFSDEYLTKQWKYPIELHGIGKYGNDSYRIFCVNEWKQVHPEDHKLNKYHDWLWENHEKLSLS
Description: Inhibition of MBD4 by quantifying inhibition of MBD4-mediated cleavage and dissociation of quenched duplex DNA oligonucleotides, measured as fluorescence at 594 nm. To generate a functional strand incision and increase turn-over this assay is coupled to APE1.

[5] = molecular target: T3, Single-strand selective monofunctional uracil DNA glycosylase (Homo sapiens) (UniProt Q53HV7);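 also: enzymatic SMUG1 assay coupled with APE1, reading fluorescence at 594 nm released when a quenched double-stranded DNA oligonucleotide substrate is cleaved and separated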
T3 sequence (whole entry): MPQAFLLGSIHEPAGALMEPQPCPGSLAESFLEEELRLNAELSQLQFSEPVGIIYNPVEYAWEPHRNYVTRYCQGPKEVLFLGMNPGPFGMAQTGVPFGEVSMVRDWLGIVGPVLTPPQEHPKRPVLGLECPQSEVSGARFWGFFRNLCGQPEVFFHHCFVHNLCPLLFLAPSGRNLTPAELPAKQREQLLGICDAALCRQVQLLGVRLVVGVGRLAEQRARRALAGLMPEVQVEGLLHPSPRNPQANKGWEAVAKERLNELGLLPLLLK
Description: Inhibition of SMUG1 by quantifying inhibition of SMUG1-mediated cleavage and dissociation of quenched duplex DNA oligonucleotides, measured as fluorescence at 594 nm. To generate a functional strand incision and increase turn-over this assay is coupled to APE1.

[6] = molecular target: N-glycosylase/DNA lyase (Homo sapiens) (UniProt O15527);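 also: OGG1 cleavage of a quenched duplex DNA oligonucleotide, coupled to APE1 for strand incision, read as fluorescence at 594 nm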
Sequence of N-glycosylase/DNA lyase (Homo sapiens) (O15527 whole entry): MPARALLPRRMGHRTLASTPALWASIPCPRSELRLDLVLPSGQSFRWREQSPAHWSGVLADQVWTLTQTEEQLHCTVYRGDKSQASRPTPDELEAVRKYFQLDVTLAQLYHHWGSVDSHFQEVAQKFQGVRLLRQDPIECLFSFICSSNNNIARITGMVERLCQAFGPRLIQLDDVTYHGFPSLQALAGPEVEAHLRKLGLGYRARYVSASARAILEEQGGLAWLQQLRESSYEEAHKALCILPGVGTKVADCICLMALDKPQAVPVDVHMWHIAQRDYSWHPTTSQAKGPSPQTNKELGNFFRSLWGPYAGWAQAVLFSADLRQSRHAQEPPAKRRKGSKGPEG
Description: Inhibition of OGG1 by quantifying inhibition of OGG1-mediated cleavage and dissociation of quenched duplex DNA oligonucleotides, measured as fluorescence at 594 nm. To generate a functional strand incision and increase turn-over this assay is coupled to APE1.

[7] = molecular target: Uracil-DNA glycosylase (Homo sapiens) (UniProt P13051);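 also: UNG excision on a quenched double-stranded DNA oligo probe, with APE1 added for strand incision and turnover, read as fluorescence at 594 nm as strands separate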
Sequence of Uracil-DNA glycosylase (Homo sapiens) (P13051 whole entry): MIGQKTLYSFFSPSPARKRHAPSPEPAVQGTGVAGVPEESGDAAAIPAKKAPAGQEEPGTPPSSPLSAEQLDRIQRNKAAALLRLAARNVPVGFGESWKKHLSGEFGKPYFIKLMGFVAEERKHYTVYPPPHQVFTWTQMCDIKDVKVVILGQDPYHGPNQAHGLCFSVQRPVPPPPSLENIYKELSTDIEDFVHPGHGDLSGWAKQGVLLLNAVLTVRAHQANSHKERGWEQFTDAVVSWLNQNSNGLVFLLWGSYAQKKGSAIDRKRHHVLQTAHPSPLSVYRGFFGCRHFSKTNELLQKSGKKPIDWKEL
Description: Inhibition of UNG by quantifying inhibition of UNG-mediated cleavage and dissociation of quenched duplex DNA oligonucleotides, measured as fluorescence at 594 nm. To generate a functional strand incision and increase turn-over this assay is coupled to APE1.

[8] = molecular target: Endonuclease 8-like 1 (Homo sapiens) (UniProt Q96FI4);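 also: fluorescence at 594 nm from quenched duplex DNA oligonucleotides released by NEIL1 cleavage and strand separation, reported as reduction of this enzyme activity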
Sequence of Endonuclease 8-like 1 (Homo sapiens) (Q96FI4 whole entry): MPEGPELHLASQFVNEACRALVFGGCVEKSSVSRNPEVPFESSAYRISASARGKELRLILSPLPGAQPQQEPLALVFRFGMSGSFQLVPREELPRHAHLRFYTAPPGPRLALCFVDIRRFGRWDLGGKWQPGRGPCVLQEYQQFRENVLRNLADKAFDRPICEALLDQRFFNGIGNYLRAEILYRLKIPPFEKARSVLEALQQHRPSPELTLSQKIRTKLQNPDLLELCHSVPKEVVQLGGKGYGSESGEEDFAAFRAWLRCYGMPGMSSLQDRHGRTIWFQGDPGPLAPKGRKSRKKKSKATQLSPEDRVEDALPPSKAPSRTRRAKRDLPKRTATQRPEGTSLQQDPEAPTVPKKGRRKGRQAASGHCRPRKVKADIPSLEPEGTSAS
Description: Inhibition of NEIL1 by quantifying inhibition of NEIL1-mediated cleavage and dissociation of quenched duplex DNA oligonucleotides, measured as fluorescence at 594 nm.

Sequence of G/T mismatch-specific thymine DNA glycosylase (Homo sapiens) (Q13569 whole entry): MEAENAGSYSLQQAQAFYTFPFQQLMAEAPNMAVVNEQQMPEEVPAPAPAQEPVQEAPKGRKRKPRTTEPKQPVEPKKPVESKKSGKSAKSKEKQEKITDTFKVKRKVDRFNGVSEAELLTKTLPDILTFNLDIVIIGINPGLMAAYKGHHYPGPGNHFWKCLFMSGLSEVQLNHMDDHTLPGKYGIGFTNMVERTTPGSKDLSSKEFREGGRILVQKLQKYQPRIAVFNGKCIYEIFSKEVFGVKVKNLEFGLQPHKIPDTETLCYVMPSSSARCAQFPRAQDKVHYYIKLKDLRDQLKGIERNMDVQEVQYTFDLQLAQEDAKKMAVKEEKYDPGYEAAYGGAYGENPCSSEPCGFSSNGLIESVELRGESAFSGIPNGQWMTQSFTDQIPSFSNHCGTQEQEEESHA

Structure (SMILES)	inhibition ([1]; Compound Concentration 10.0 uM)	inhibition ([2]; Compound Concentration 10.0 uM)	inhibition ([3]; Compound Concentration 10.0 uM)	inhibition ([4]; Compound Concentration 10.0 uM)	inhibition ([5]; Compound Concentration 10.0 uM)	inhibition ([6]; Compound Concentration 10.0 uM)	inhibition ([7]; Compound Concentration 10.0 uM)	inhibition ([1]; Compound Concentration 1.0 uM)	inhibition ([2]; Compound Concentration 1.0 uM)	inhibition ([3]; Compound Concentration 1.0 uM)	inhibition ([4]; Compound Concentration 1.0 uM)	inhibition ([5]; Compound Concentration 1.0 uM)	inhibition ([6]; Compound Concentration 1.0 uM)	inhibition ([7]; Compound Concentration 1.0 uM)	inhibition ([8]; Compound Concentration 10.0 uM)	inhibition ([8]; Compound Concentration 1.0 uM)
CCC(=O)N[C@H]1CC[C@@H](C(=O)N(C)c2ccc(-c3nc4ccccc4o3)cc2)C1	41.7%	8.31%	8.7%	62.4%	9.01%	-8.13%	-2.88%									
C[C@@H](NC(=O)Nc1cc2[nH]ncc2c(CO)n1)c1ccccc1	70.5%	3.93%	-3.37%	29.7%	21.2%	4.45%	3.78%									
Cc1nc(-c2cn3c(n2)-c2ccc(-c4cnn(C(C)(C)C(N)=O)c4)cc2OCC3)n(C(C)C)n1								60%	3.04%	-7.57%	-2.34%	19.2%	1.09%	0.537%		
NC(=O)c1ccc2nc(-c3ccc(C4(N)CCC4)cc3)c(-c3ccccc3)n2n1								71.4%	26.6%	-7.61%	31.7%	21.7%	4.13%	3.74%		
Cn1nc(C(F)(F)F)cc1-c1cnc(N2CCc3cc(S(=O)(=O)Nc4c(F)cc(Cl)cc4F)cc(N4CCCC4=O)c32)nc1	53.9%	17.9%	4.87%	59.5%	9.91%	12.6%	1.37%									
CCc1cccc(CC)c1NC(=O)c1nn(C)c2c1CCc1cnc(Nc3ccc(C(=O)NC4CCN(C)CC4)cc3OC(F)(F)F)nc1-2	38.9%	-6.43%	13.7%	12.9%	13.4%		2.73%								2.12%	
Cc1c(OCc2cccc(-c3ccc(C(=O)O)cc3)c2)cc2c(c1C)C(=O)C(C1CCCC1)C2 (stereo not given)	-4.78%	-1.13%	-2.23%	-8.74%	-3.76%	0.771%									-5.54%	
NC[C@@H]1O[C@H](C23CC4CC(CC(C4)C2)C3)Cc2c1ccc(O)c2O	31.8%	23.1%	24.7%	-8.04%	12.4%		-2.15%								18.5%	
CN([C@@H]1CCc2c(CC(=O)O)c3cc(S(C)(=O)=O)ccc3n2C1)S(=O)(=O)c1ccc(F)cc1	46%	-3.16%		53.8%	11.2%	-10%	2.31%									
CCC(=O)Nc1cccc(Oc2nc(Nc3ccc(N4CCN(C)CC4)cc3OC)ncc2Cl)c1	56.8%	-2.48%	-8.65%	-9.91%	21.8%		-2.02%								-1.18%	
N#Cc1ccc(Nc2ccc3[nH]c(=O)[nH]c3c2)c(Cl)c1								38.3%	7.43%		63.1%	11.9%	-3.21%	1.6%		
O=C(Cc1ccccc1)Nc1nnc(N2C[C@H]3C[C@@H]2CN3c2cccnn2)s1								47.1%	-1.58%		62%	13.8%	0.672%	2.12%		2.13%
Cc1c(NC(=O)c2cc(C(N)=O)nc3cc(F)ccc23)c(C(F)(F)F)nn1Cc1ccc(C(C)(C)C)cc1								55.8%	11.6%		59.5%	16.4%	-8.67%	0.116%		-8.32%
CC(C)(O)c1cncc(-c2nc3ccc(F)cc3n2C2CC2)c1	50.2%	11.5%		59.6%	1.08%	8.25%	-3.32%									
